# PMC4720136 (Journal of the American Chemical Society, 2015)
# Biological target: EncM (Streptomyces maritimus, UniProt Q9KHK2)
# Assay: stopped-flow flavin reduction at […] nm, hyperbolic fit of kobs
# Assay type: biochemical
# Settings: read-out: apparent Kd; EncM-Flox (oxidized, inactive flavin form), anaerobic, 4 °C, 0.1 M Tris-H2SO4 pH 7.5, 10% glycerol
row,Kd [mM],SMILES
1,9.3 ± 0.3,NC(=O)C1=CN([C@@H]2O[C@H](COP(=O)(O)OP(=O)(O)OC[C@H]3O[C@@H](n4cnc5c(N)ncnc54)[C@H](O)[C@@H]3O)[C@@H](O)[C@H]2O)C=CC1 [NADH]
2,0.26 ± 0.01,NC(=O)C1=CN([C@@H]2O[C@H](COP(=O)(O)OP(=O)(O)OC[C@H]3O[C@@H](n4cnc5c(N)ncnc54)[C@H](OP(=O)(O)O)[C@@H]3O)[C@@H](O)[C@H]2O)C=CC1 [NADPH]
